Values joined by “and” are separate entries in the source; they are usually repeats but may differ in a detail not shown here. Equal values may be shown once. “Also recorded” adds a separate entry of the source. Read-outs that look alike come from different tables or passages of the source. Marks after values point to notes of the source that are not given here.
How the values were obtained:
[1] = set-up: method as in Thurn et al, 2011; conditions: CRA after administration of a similar dose; ref Thurn et al, 2011; cited from earlier work
[2] = CRA trough plasma concentrations (LC-MS/MS); format: in vivo, human
Procedure: Cis retinoic acid PK studies were performed during the first 2 cycles of therapy. Serial sampling of venous blood was obtained at the following times: pre-treatment on Cycle 1, days 1, 2, 3, 4, 8, and 15 and pre-treatment on Cycle 2, days 1, 15, 16, 17, and 22. Blood samples were collected in heparinised tubes and were processed by centrifugation within 30 min at 1000 g at 4 °C for 10 min. Plasma was stored at −20 °C until analysis using a validated LC-MS/MS analytical method. Briefly, 1 ml plasma was extracted with 5 ml of acetonitrile/n-Butyl chloride (1 : 4, v/v) containing paclitaxel. Cis retinoic acid was separated on a Waters (Milford, MA, USA) X-Terra MS C18 (50 × 2.1 mm, 3.5 μm) column with 0.1% formic acid in acetonitrile/10 mM ammonium acetate (80 : 20, v/v) using isocratic flow of 0.2 ml min^−1 for 5 min. Cis retinoic acid was quantitated over the range of 5–2000 ng ml^−1. Quality control samples were assayed with each analytic run and were within 15% of the nominal concentration. […] Cmin at steady state (Css,min) was calculated for each patient by taking the average of the Cmin during each cycle.
Descriptive statistics were used to summarise patient characteristics, efficacy, and safety data. […] Differences between CRA Css,min during each cycle were evaluated statistically by use of a non-parametric, 2-sided Wilcoxon signed rank test for paired observations. […]

[3] = system: phosphorylated ERK in tumour tissue; experiment: Western blot of tumour FNA: phosphorylated ERK; format: in vivo, human; conditions: FNA of liver lesion, patient with metastatic prostate cancer; entinostat with CRA
Procedure: (§1) A pre-treatment sample was taken on day 15. During Cycle 2, and subsequent cycles, samples were collected pre-treatment on days 1 and 15. […] Peripheral blood mononuclear cells were collected from patients according to the study calendar schedule. For isolation of PBMCs, 10 ml of blood were collected in CPT tubes (Vacutainer CPT Cell Preparation Tube with NC: 0.45 ml; Ficoll: 1.0 ml; Becton Dickinson, Franklin Lakes, NJ, USA) and plasma was separated by centrifugation. Differential centrifugation of plasma was performed to isolate PBMCs, which were kept frozen at −80 °C until the end of the study schedule for each patient. Fine needle aspiration (FNA) was planned on Cycle 1, day 22 in patients with accessible tumours to assess changes in acetylation and signalling pathway expression. For western blotting, PBMCs and tumour tissue were lysed in M-PER mammalian protein extraction reagent (Pierce, Rockford, IL, USA) with protease inhibitor cocktail (Roche Diagnostics, Indianapolis, IN, USA), followed by brief sonication. Proteins (20 μg per lane) from cell lysates were applied to 4–15% Tris-HCl gels (Bio-Rad, Hercules, CA, USA) and blotted with primary antibodies that were purchased from Upstate (Lake Placid, NY, USA) for anti-acetyl histone H3 and from Sigma (St Louis, MO, USA) for β-actin clone A1978, ERK, and phosphorylated ERK.

[4] = system: histone H3 acetylation in PBMCs; experiment: Western blot of histone H3 acetylation in PBMCs; format: in vivo, human; conditions: pre-treatment vs post-treatment time points, entinostat with CRA
Procedure: as §1

[5] = entinostat oral once weekly (fasting) with 1 mg kg^−1 CRA
Procedure: A starting dose of 4 mg m^−2 and a fixed CRA dose at 1 mg kg^−1 per dose level were planned. If a patient experienced toxicities the next lower level was 2 mg m^−2. […] Originally six dose levels were included ([…]). Each cohort consisted of three patients according to the standard 3+3 design, where if one patient experiences a DLT, three additional patients are enroled.
Dose-limiting toxicity was defined as first cycle adverse events ⩾grade 3 non-haematological or ⩾grade 4 haematological toxicities. The MTD was defined as one dose level below the dose at which ⩾ two of six patients experience DLT. […] Tumour response assessment was performed every two cycles (2 months) by both clinical assessment and imaging studies.

[6] = system: human prostate cancer cell line (LAPC4); experiment: PSA secretion and PSA gene expression in LAPC4 cells in vitro; format: cell-based
Excerpt: The sudden rise of tumour marker CA 19-9 in a patient with unresectable pancreatic cancer was worrisome for a rapid clinical progression. However, the CT scan documented stable disease for 6 months. […] An increase in the PSA slope occurred while on treatment, with a rapid deflection following treatment discontinuation. […] This observation poses some challenges as in the clinical development of ‘differentiation’ therapies increasing tumour marker levels may not be a significant sign for disease progression, but rather a potential signal of biological activity. […] Accordingly, the use of tumour markers for disease response assessment is evolving and needs to be further validated in prospective studies. Recently, the Prostate Cancer Clinical Trials Working Group recommended that in most clinical trials early changes in PSA should not be acted on without other evidence of disease progression, and treatment should be continued for at least 12 weeks to ensure adequate drug exposure ([Scher et al, 2008]).

[7] = Entinostat plasma pharmacokinetics (LC-MS/MS, non-compartmental analysis); format: in vivo, human; conditions: for Cls/F (apparent oral clearance) / half-life / Tmax / Cmax / AUC: plasma; for half-life / Tmax / Cmax / AUC: human; for AUC: read-out: AUC0−∝
Procedure: Pharmacokinetic studies were performed during the first 2 cycles of therapy. […] Blood samples were collected in heparinised tubes and were processed by centrifugation at 1000 g for 10 min. Plasma was stored at −20 °C until analysis. […] Quality control samples were assayed with each analytic run and were within 15% of the nominal concentration. Individual PK parameters were estimated by standard non-compartmental analysis, which was performed using WinNonlin, Version 5.3 (Pharsight Corporation, Mountain View, CA, USA; [Gibaldi, 1982]). Descriptive statistics were used to summarise patient characteristics, efficacy, and safety data. Pharmacokinetic parameters were summarised by descriptive statistics using dose-normalised parameters for dose-dependent parameters and actual values for dose-independent parameters. Kruskal–Wallis analysis of variance by ranks or the Wilcoxon rank-sum were used to compare the differences in entinostat PK parameters and CRA Css,min as a function of dose level. […] Statistical calculations were performed with the software package JMP, Version 4.0.4 (SAS Institute, Cary, NC, USA). The a priori level of significance was set at P<0.05.

[8] = system: acetylated H3 in tumour tissue; experiment: Western blot of tumour FNA: acetylated H3; format: in vivo, human; conditions: FNA of liver lesion, patient with metastatic prostate cancer; entinostat with CRA
Procedure: as §1

[9] = set-up: method as in Gore et al, 2008; conditions: entinostat single agent, 7- or 14-day schedule; ref Gore et al, 2008; cited from earlier work

For `CC1=C(/C=C/C(C)=C/C=C/C(C)=C\C(=O)O)C(C)(C)CCC1` [CRA, 13-cis retinoic acid], the steady-state trough concentrations [1] is listed as 160 ± 19 ng/mL, the “average Css,min” value ([2]; Cycle 1, CRA 1 mg kg^−1 per day oral with entinostat) is listed as 194.9 ± 103.5 ng/mL and the “average Css,min” value ([2]; Cycle 2, CRA 1 mg kg^−1 per day oral with entinostat) is listed as 131.8 ± 79.3 ng/mL.
For `Nc1ccccc1NC(=O)c1ccc(CNC(=O)OCc2cccnc2)cc1` [entinostat], the “phosphorylated ERK protein levels in tumour” value [3] was “decreased; also recorded: inhibition”, the “histone H3 acetylation in PBMCs” value [4] was “transient increased acetylation” and the “maximum tolerated dose (MTD)” value [5] was < 5 mg m^−2 and 4 mg m^−2. For the same molecule, the PSA gene expression [6] was “no change”, the “increase in PSA secretion into the culture media” value ([6]; achievable plasma concentrations of entinostat, data not shown) was 2.5 fold and the “patients with measurable entinostat concentrations” value ([7]; 1 week post-treatment) was 14 of 17. The “Cls/F (apparent oral clearance)” value ([7]; all dose levels (Total) with CRA, Cycle 1, day 1, mean±s.d., n=13) was 14.9±22.0 ^c l h^−1 m^−2, the “Cls/F (apparent oral clearance)” value ([7]; all dose levels (Total) with CRA, Cycle 1, day 1, mean±s.d., n=13, listed as Entinostat) was 14.9±22.0 l h^−1 m^−2 and the variability in clearance ([7]; entinostat with CRA, patients with solid tumours) was 147%. The half-life ([7]; oral, all dose levels (Total) with CRA, Cycle 1, day 1, mean±s.d., n=13, read-out: T1/2 (terminal half-life) (converted)) was 114 ± 78.2 h, the Tmax ([7]; oral, all dose levels (Total, 4 and 5 mg m^−2) with CRA, Cycle 1, day 1, median (range), 18 patients) was 0.42 h and the Cmax ([7]; po, 4 mg m^−2) was 114 ± 84 ng/mL. For the same molecule, the Tmax ([7]; po, 4 mg m^−2) was 0.5 h, the AUC ([7]; po, 4 mg m^−2) was 587 ± 401 ng·h/mL and the half-life ([7]; po, 4 mg m^−2, read-out: T1/2 (converted)) was 130 ± 88.5 h. It also gave a Cmax ([7]; po, 5 mg m^−2) of 109 ± 66 ng/mL, a Tmax ([7]; po, 5 mg m^−2) of 0.25 h and an AUC ([7]; po, 5 mg m^−2) of 778 ± 648 ng·h/mL. For the same molecule, the half-life ([7]; po, 5 mg m^−2, read-out: T1/2 (converted)) was 77.3 ± 31.9 h, the “intra-tumoural acetylated H3” value [8] was “increased; also recorded: induction” and the Tmax [9] was no more than 1 h. The variability in clearance [9] was 24–68%.
